# Assay results published in PubChem BioAssay (NCI).
#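 Protocol summary: plate cells (96-well), add compound at 5 concentrations, incubate 48 h, interpolate endpoints linearly. GI50: concentration for 50% inhibition of growth. At the TGI there is no net growth.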 Residues, ends and D or L forms follow the SMILES beside them. *: point of attachment. Boc = CC(C)(C)OC(=O)*; OBn = c1ccc(CO*)cc1
# Assays:
# Assay in all cases: NCI tumour cell line growth inhibition, 48 h
# [1] = system: SR leukemia
# [2] = system: ACHN renal
# [3] = system: SW-620 colon
# [4] = system: A549 NSCLC
# [5] = system: SF-268 CNS
# [6] = system: UACC-257 melanoma
# [7] = system: SNB-19 CNS
# [8] = system: SNB-75 CNS
# [9] = system: MDA-MB-231 breast
# [10] = system: HS 578T breast
Structure (SMILES),TGI [1],TGI [2],TGI [3],TGI [4],TGI [5],TGI [6],TGI [7],TGI [8],TGI [9],TGI [10],GI50 [1],GI50 [2],GI50 [9],GI50 [3],GI50 [5],GI50 [6],GI50 [7],GI50 [8]
NC(=O)N/N=C(/Cc1nc2ccc(C(=O)c3ccccc3)cc2[nH]c1=O)C(=O)Nc1ccc(C(F)(F)F)cc1[N+](=O)[O-],> 100 µM,> 100 µM,> 100 µM,> 100 µM,> 100 µM,> 100 µM,> 100 µM,97.3 µM,,,,,,,,,,
Oc1ccccc1C1=NOC(c2ccc(C(F)(F)F)cc2)C1 (stereo unspecified),,> 50 µM,> 50 µM,> 50 µM,> 50 µM,> 50 µM,> 50 µM,> 50 µM,> 50 µM,> 50 µM,,,,,,,,
CC(C)(C)OC(=O)C1=C2C=C(O)C=CC2(C)N(Cc2ccccc2)C1=N (stereo unspecified),,5.56 µM,5.69 µM,28.1 µM,,18.7 µM,33.8 µM,> 56.7 µM,21.6 µM,> 91.6 µM,,,,,,,,
O=c1[nH]nc(Cn2c3ccc(Br)cc3c3nc4ccccc4nc32)n1C1CCCCC1,> 100 µM,> 100 µM,> 100 µM,> 100 µM,> 100 µM,> 100 µM,> 100 µM,> 100 µM,> 100 µM,,,,,,,,,
CC(C)CC(NC(=O)OC(C)(C)C)C(=O)N1CCCC1C(=O)OCc1ccccc1 (stereo not drawn) (Boc-Leu-Pro-OBn; configuration not given here),> 100 µM,> 100 µM,> 100 µM,> 100 µM,> 100 µM,> 100 µM,> 100 µM,> 100 µM,> 100 µM,,,,,,,,,
O=C(Nc1cc(Cl)cc(Cl)c1)/C(Cc1nc2ccccc2[nH]c1=O)=N/NC(=O)c1ccncc1,,> 100 µM,> 100 µM,> 100 µM,,> 100 µM,> 100 µM,,,,,,,,,,,
O=S(=O)(c1ccccc1)n1cc(C[P+](c2ccccc2)(c2ccccc2)c2ccccc2)c2ccccc21,31.6 µM,28.7 µM,17.1 µM,24.8 µM,18.6 µM,,6.77 µM,12.6 µM,,,,,,,,,,
N=C(N)c1ccc(-c2ccc(-c3cccs3)s2)s1,0.895 µM,3.09 µM,3.21 µM,,3.48 µM,3.11 µM,3.07 µM,3.41 µM,3.13 µM,,0.302 µM,1.66 µM,1.5 µM,1.63 µM,1.79 µM,1.66 µM,1.56 µM,1.77 µM
Cc1nn2c(C(=O)N/N=C/c3ccc([N+](=O)[O-])cc3)c(C)nc2s1,,> 100 µM,> 100 µM,> 100 µM,> 100 µM,> 100 µM,> 100 µM,> 100 µM,49.4 µM,> 100 µM,,,,,,,,
NCCCCC(=O)c1cccnc1,> 100 µM,,> 100 µM,> 100 µM,> 100 µM,> 100 µM,> 100 µM,,,,,,,,,,,
N#Cc1nc(-c2ccccn2)oc1N,> 100 µM,> 100 µM,> 100 µM,,> 100 µM,> 100 µM,> 100 µM,,> 100 µM,> 100 µM,,,,,,,,
CN(C)CCn1c(=O)c2ccc3c4c(nn3CCN(C)C)c3cc([N+](=O)[O-])ccc3n(c1=O)c24,,0.975 µM,0.979 µM,1.23 µM,0.942 µM,1.99 µM,1.08 µM,,0.491 µM,2.82 µM,,,,,,,,
COC(=O)C1=C(C(=O)OC)SC(=C2S[C@@H]3[C@@H]4C[C@H]([C@@H]3S2)[C@H]2C(=O)OC(=O)[C@@H]42)S1,,> 100 µM,> 100 µM,> 100 µM,> 100 µM,> 100 µM,> 100 µM,,> 100 µM,> 100 µM,,,,,,,,
CCN(CC)c1ccc2cc(-c3nnc(-c4ccccc4O)o3)c(=O)oc2c1,33.7 µM,24.2 µM,26.9 µM,29.1 µM,28.3 µM,35.1 µM,26.9 µM,,,57.6 µM,,,,,,,,
Cc1cc(=O)[nH]c(NNC(C#N)c2c(O)ccc3ccccc23)n1 (stereo unspecified),26.3 µM,13 µM,29.9 µM,18.5 µM,40.7 µM,19.8 µM,,55.9 µM,,,,,,,,,,
Nc1nc2ccc(OCC(O)CN3CCCCC3)cc2[n+]([O-])n1 (stereo unspecified),> 100 µM,> 100 µM,> 100 µM,> 100 µM,,> 100 µM,> 100 µM,> 100 µM,> 100 µM,,,,,,,,,
O=[N+]([O-])/C(C(Cl)=C(Cl)Cl)=C(\Nc1ccccc1)n1nnc2ccccc21,,> 100 µM,> 100 µM,> 100 µM,36.3 µM,> 100 µM,> 100 µM,> 100 µM,> 100 µM,38.7 µM,,,,,,,,
COC(=O)c1c[nH]c2c1-c1cc(C(=O)OCc3ccccc3)n(S(=O)(=O)c3ccc(C)cc3)c1C(=O)C2=O,3.51 µM,0.761 µM,0.576 µM,1.97 µM,2.27 µM,0.311 µM,0.505 µM,0.389 µM,0.401 µM,,,,,,,,,

Structure (SMILES),TGI [1],TGI [2],TGI [3],TGI [4],TGI [5],TGI [6],TGI [7],TGI [8],TGI [9],TGI [10],GI50 [1],GI50 [2],GI50 [9],GI50 [3],GI50 [5],GI50 [6],GI50 [7],GI50 [8]
COc1cc(S(=O)(=O)Nc2ccc(-c3csc(N4C(=O)C(Cl)C4c4ccccc4)n3)cc2)ccc1Cl (stereo unspecified),> 100 µM,> 100 µM,> 100 µM,> 100 µM,> 100 µM,> 100 µM,> 100 µM,49.1 µM,,> 100 µM,,,,,,,,
O=C(O)CNn1c(SCC(=O)O)nnc(/C=C/c2c(O)ccc3ccccc23)c1=O,60 µM,> 100 µM,> 100 µM,> 100 µM,97.3 µM,> 100 µM,> 100 µM,,,94.4 µM,,,,,,,,
Cc1c(N/C=C(\C#N)C(=O)c2ccc(Cl)cc2)c(=O)n(-c2ccccc2)n1C,,,> 100 µM,> 100 µM,,> 100 µM,> 100 µM,> 100 µM,> 100 µM,,,,,,,,,
COC(=O)C1=CN(C2CCCCC2)C2(c3ccccc3)c3ccccc3C(=O)OC(=O)C12 (stereo unspecified),,> 100 µM,> 100 µM,> 100 µM,> 100 µM,> 100 µM,> 100 µM,> 100 µM,> 100 µM,,,,,,,,,
[O-][N+]1=NC(c2ccccc2)=C1c1ccccc1,,> 50 µM,> 50 µM,> 50 µM,> 50 µM,> 50 µM,> 50 µM,> 50 µM,> 50 µM,> 50 µM,,,,,,,,
CN(C)S(=O)(=O)n1cnc(CO)c1,,> 100 µM,> 100 µM,> 100 µM,> 100 µM,> 100 µM,> 100 µM,> 100 µM,> 100 µM,,,,,,,,,
O=C(N/N=C/c1ccccc1O)c1ccccc1Nc1ccccc1C(=O)N/N=C/c1ccccc1O,,> 100 µM,> 100 µM,> 100 µM,2.28 µM,> 100 µM,> 100 µM,> 100 µM,> 100 µM,,,,,,,,,
COc1cc(Nc2nnc3n2S(=O)(=O)c2cc(C)c(Cl)cc2S3)cc(OC)c1,,16.7 µM,,30 µM,50.7 µM,> 100 µM,77.6 µM,,74.5 µM,66.9 µM,,,,,,,,
COc1ccc(/C=C2\Sc3nnc(CNc4ccc(Cl)cc4)n3N=C2c2cc(F)c(Cl)cc2Cl)cc1OC,> 100 µM,> 100 µM,36.9 µM,,> 100 µM,> 100 µM,,,> 100 µM,> 100 µM,,,,,,,,
SCc1ccc(CS)s1,> 100 µM,,> 100 µM,> 100 µM,> 100 µM,> 100 µM,> 100 µM,> 100 µM,> 100 µM,,,,,,,,,
Cc1cnc2c(c1)C(=O)C1=C(OC(C)(C)CC1O)C2=O (stereo unspecified),> 100 µM,29 µM,28.5 µM,31.9 µM,37.2 µM,27 µM,31.6 µM,28.5 µM,,,,,,,,,,
CCN(CC)CCCNc1nc(=O)[nH]c(C)c1C(=O)Nc1ccc2c(c1)c1ccccc1n2CC,,> 100 µM,> 100 µM,> 100 µM,,> 100 µM,> 100 µM,> 100 µM,> 100 µM,,,,,,,,,
Cc1ccc(N=NN(C)C(=O)C(C)N)cc1 (stereo unspecified),> 100 µM,> 100 µM,> 100 µM,,> 100 µM,> 100 µM,> 100 µM,> 100 µM,,,,,,,,,,
CC(C)(C)OC/C=C1\C(=O)O[C@H]2C[C@@H](O[Si](C)(C)C(C)(C)C)C[C@@H]12,> 100 µM,> 100 µM,> 100 µM,> 100 µM,> 100 µM,> 100 µM,> 100 µM,> 100 µM,> 100 µM,,,,,,,,,
O=C1NC(N2CCCCC2)=N/C1=C\c1ccccc1O,,> 100 µM,> 100 µM,> 100 µM,> 100 µM,> 100 µM,> 100 µM,> 100 µM,> 100 µM,> 100 µM,,,,,,,,
NC(=O)C(=O)C(c1ccccc1)S(=O)(=O)Cc1ccccc1 (stereo unspecified),> 100 µM,> 100 µM,> 100 µM,> 100 µM,> 100 µM,> 100 µM,> 100 µM,> 100 µM,> 100 µM,,,,,,,,,
COC(=O)[C@]1(c2cc3ccccc3[nH]2)CC2CN(CC(=O)N(C)OC)C1CC2(OC)OC (stereo partly specified),,> 100 µM,> 100 µM,> 100 µM,> 100 µM,> 100 µM,> 100 µM,> 100 µM,> 100 µM,,,,,,,,,
